Columns and labels:
caspase 1 p20 = assay: Caspase-1 accumulation in BMM by Western blot; type: cell-based, murine; conditions: Atg5fl/fl LysM-Cre− BMM, EBSS
Description: (A) Confocal microcopy analysis of caspase-1 colocalization relative to LC3 in GFP-LC3 expressing BMM induced for autophagy by starvation (EBSS) in the presence of bafilomycin A1 for 90 minutes. Scale bar, 5 μM; Arrowheads and insets, LC3+ caspase-l+ positive profiles (colocalization). (B) Pearson's colocalization coefficient for caspase-1 vs. LC3 and IL-1α vs. LC3. (C) Caspase-1 accumulation in Atg5^fl/fl LysM-Cre− or Atg5^fl/fl LysM-Cre+ BMM induced for autophagy in EBSS with or without bafilomycin A1 (BafA1) and subjected to Western blot analysis. (D) IL-1α (culture supernatant ELISA) released from Atg5fl/fl LysM-Cre+ and Atg5fl/fl LysM-Cre− BMM incubated overnight with 100 ng/ml LPS and exposed for 1 h to inflammasome agonist silica (250 μg/ml) in EBSS. Data, means±SE, n≧3; **p<0.01 (t test).
Cells were washed with PBS and lysed with RIPA buffer containing protease inhibitor cocktail (Roche). Cells extracts were analyzed by standard immunoblotting techniques with antibodies to ASC (Enzo Life Science, AL177), procaspase-1 and active caspase-1 (P20) (Cell Signaling, 2225), GFP (Abeam), calpain I (Cell Signaling), p62 (Abeam) and actin (Sigma). Proteins were resolved on a 12% SDS-polyacrylamide gels and transferred to nitrocellulose membranes. The membrane was blocked for 1 h in 5% nonfat dried milk in PBS/Tween 20 (0.1%) and probed with primary antibody overnight at 4° C. […]

BMM = assay: Confocal quantification of cells positive for LC3 and IL-1α puncta; type: cell-based, murine; conditions: Atg5+ BMM, LPS+IFN-γ, 90 min EBSS
Description: (A,B) IL-1α (ELISA) released from LPS+IFN-γ stimulated Atg5^fl/fl LysM-Cre+ and Atg5^fl/fl LysM-Cre− BMM in the presence of 50 μg/ml rapamycin (Rap), 10 mM 3-MA, or 100 nM Bafilomycin A1 (Baf A1) after 12 h of stimulation. (C) IL-1α (ELISA) in culture supernatants of cells as in A, treated with calpain inhibitor, ALLN (100 μM). (D-F) Images and quantification of cells positive for LC3-only, IL-1α-only or LC3+IL-1α. Cells, wild type (Atg5+) BMM stimulated with LPS+IFN-γ and incubated for 90 min in EBSS in the absence (D, control) or presence (E, Baf A1) of bafilomycin A1. Cutoff for cells to be considered positive: >6 red or green puncta. Red arrowheads, IL-1α+ LC3− cells; green arrowheads, IL-1α− LC3+ cells; 10 μm.
For confocal microscopy, BMM were stained with mouse anti-GFP (Abeam, 10 μg/ml) to enhance LC3-GFP visualization, rabbit anti-caspase 1 (Santa Cruz Biotechnology), rabbit anti-calpain 1 (Cell Signaling Technology), or hamster anti-IL-1α (eBioscience) followed by secondary antibodies. Pearson's colocalization coefficients were derived using SLIDEBOOK 5.0 (Intelligent Imaging Innovations) applying the SLIDEBOOK 5 default algorithm command ‘AND’. All Pearson's coefficients were derived from three independent experiments with five fields or more per experiment, for a total of 15 fields contributing to the cumulative result.

## CO/C1=C\C(C)=C\[C@@H](C)[C@@H](O)[C@@H](C)C/C(C)=C/C=C/[C@H](OC)[C@@H]([C@@H](C)[C@@H](O)[C@H](C)[C@@]2(O)C[C@@H](O)[C@H](C)[C@@H](C(C)C)O2)OC1=O [bafilomycin A1]
Caspase 1 p20
  levels of caspase 1 p20: abnormally higher levels
BMM
  number of cells positive for both IL-1α and LC3: increased
